{"source": "patent US4455290A", "about": "“Inhibition of fibrin polymerization by a peptide isolated from fibrin Fragment D1” (Research Corporation, priority 1981, dated 1984)", "key": {"intact NDSK": {"biological_target": "T1, intact NDSK (Homo sapiens, UniProt P02671+P02675+P02679)", "T1 sequence (P02671 20-70 limits assumed)": "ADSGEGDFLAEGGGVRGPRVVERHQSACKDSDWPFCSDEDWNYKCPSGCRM", "T1 sequence (P02675 31-148 limits assumed)": "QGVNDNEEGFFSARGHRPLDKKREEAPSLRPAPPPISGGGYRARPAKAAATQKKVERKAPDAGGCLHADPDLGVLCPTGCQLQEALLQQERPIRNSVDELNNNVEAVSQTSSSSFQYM", "T1 sequence (P02679 27-104 limits assumed)": "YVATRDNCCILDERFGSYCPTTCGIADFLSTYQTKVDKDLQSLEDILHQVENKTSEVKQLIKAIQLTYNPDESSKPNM", "test": "Equilibrium binding of 125-I D1 Peptide, intact NDSK"}, "[1]": {"biological_target": "T2, thrombin-treated NH2-terminal disulfide knot (NDSK) (Homo sapiens, UniProt P02671+P02675+P02679)", "T2 sequence (P02671 36-70 limits assumed)": "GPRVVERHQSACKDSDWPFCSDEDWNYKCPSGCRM", "T2 sequence (P02675 45-148 limits assumed)": "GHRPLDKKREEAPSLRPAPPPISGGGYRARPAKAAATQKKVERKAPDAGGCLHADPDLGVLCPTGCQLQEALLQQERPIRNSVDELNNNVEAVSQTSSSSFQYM", "T2 sequence (P02679 27-453)": "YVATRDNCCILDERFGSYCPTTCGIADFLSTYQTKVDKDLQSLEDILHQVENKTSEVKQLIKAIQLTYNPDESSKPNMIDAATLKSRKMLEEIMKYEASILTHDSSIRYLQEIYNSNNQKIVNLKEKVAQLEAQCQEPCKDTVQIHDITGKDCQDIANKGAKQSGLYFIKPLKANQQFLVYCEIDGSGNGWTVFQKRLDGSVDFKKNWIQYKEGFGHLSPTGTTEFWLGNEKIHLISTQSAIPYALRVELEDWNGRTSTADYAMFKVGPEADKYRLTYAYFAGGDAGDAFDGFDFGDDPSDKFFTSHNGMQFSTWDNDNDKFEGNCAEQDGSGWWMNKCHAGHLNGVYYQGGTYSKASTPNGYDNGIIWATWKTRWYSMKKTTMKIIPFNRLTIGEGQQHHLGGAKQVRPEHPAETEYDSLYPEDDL", "test": "Equilibrium binding of 125-I D1 Peptide (equilibrium dialysis / Sephadex gel equilibrium), thrombin-treated NDSK"}, "thrombin fibrin monomer": {"biological_target": "T3, thrombin fibrin monomer (Homo sapiens, UniProt P02671+P02675+P02679)", "T3 construct": "Thrombin cleaves the bonds Aα16 Arg-17 Gly and Bβ14 Arg-15 Gly, releasing two molecules of fibrinopeptide A and two molecules of fibrinopeptide B; made in house; host or cells: not recombinant: made from fibrinogen by treatment with thrombin", "T3 sequence (P02671 36-629 isoform P02671-2)": "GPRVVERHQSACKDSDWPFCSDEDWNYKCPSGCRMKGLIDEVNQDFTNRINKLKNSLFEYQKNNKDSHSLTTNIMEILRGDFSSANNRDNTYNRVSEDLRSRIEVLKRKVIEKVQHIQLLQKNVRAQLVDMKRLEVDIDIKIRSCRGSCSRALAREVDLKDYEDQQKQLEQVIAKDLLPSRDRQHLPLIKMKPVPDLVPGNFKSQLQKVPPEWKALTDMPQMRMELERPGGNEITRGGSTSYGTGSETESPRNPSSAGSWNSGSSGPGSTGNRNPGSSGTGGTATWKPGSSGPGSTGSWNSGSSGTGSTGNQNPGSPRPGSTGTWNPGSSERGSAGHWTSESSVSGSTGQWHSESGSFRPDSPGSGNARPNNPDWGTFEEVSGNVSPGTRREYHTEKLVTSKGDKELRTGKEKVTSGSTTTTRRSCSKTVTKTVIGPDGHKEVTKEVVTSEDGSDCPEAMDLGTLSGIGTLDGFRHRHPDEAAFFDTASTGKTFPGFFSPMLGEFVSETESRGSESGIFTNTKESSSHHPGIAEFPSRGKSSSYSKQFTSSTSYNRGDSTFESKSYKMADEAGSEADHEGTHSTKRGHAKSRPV", "T3 sequence (P02675 45-491)": "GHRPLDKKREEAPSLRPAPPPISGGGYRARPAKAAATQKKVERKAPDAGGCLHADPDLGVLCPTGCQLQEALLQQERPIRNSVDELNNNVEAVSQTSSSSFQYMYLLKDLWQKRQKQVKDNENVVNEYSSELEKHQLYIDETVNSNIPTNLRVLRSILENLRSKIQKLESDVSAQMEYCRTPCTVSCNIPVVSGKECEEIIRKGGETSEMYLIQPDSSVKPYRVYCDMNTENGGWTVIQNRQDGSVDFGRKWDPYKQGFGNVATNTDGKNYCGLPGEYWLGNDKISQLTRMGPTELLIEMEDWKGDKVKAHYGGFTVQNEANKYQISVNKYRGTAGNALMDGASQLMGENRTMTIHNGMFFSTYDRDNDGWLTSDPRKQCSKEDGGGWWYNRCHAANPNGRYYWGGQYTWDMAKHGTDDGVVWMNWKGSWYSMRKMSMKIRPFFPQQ", "T3 sequence (P02679 27-437 isoform P02679-2)": "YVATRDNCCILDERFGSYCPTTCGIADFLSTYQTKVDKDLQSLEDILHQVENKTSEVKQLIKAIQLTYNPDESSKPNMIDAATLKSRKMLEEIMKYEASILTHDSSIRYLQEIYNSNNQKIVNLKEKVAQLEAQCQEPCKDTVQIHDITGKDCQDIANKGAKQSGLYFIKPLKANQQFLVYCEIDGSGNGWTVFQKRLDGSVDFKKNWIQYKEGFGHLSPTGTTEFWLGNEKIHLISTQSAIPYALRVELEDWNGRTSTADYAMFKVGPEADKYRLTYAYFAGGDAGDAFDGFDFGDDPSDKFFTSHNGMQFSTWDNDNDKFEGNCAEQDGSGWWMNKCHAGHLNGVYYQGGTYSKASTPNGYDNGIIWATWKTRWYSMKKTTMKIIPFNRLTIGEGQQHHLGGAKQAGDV", "test": "Inhibition of fibrin monomer polymerization (absorbance at 350 nm), thrombin fibrin monomer", "type": "biochemical", "settings": "molar excess of D1 Peptide to fibrin monomer of 100-1000 fold; Sephadex gel equilibrium system; kind of fibrin monomer not stated", "experimental": "Fibrin monomer was prepared according to the method of Belitser et al, Biochem. Biophys. Acta 154, 367-375 (1968) using either thrombin or batroxobin (an enzyme from the venom of Bothrops atrox). The polymerization of fibrin monomer which was formed by batroxobin (lacking fibrinopeptide A) or by thrombin (lacking fibrinopeptides A and B) was inhibited by D1 Peptide. Polymerization was measured spectrophotometrically at 350 nm as has been described in Budzynski, Biochem. Biophys. Acta 584, 284-287 (1979). […] At zero time the recorder was started and 0.01 ml of fibrin monomer (1.5 mg/ml in 0.02M acetic acid) was added, the cells were inverted, and the increase in absorbance at 350 nm was measured continuously for 15 min or until plateau levels were reached. For batroxobin fibrin monomer 0.15 ml of buffer or buffer containing D1 Peptide was mixed with 0.05 ml of batroxobin fibrin monomer (1.5 mg/ml in 0.02M acetic acid). The initial rate of polymerization was calculated from the slope of the steepest part of the curve and expressed as the increase in absorbance per min (A350 ·min^-1)."}, "bovine serum albumin": {"biological_target": "bovine serum albumin (Bos taurus, UniProt P02769)", "sequence (P02769 25-607)": "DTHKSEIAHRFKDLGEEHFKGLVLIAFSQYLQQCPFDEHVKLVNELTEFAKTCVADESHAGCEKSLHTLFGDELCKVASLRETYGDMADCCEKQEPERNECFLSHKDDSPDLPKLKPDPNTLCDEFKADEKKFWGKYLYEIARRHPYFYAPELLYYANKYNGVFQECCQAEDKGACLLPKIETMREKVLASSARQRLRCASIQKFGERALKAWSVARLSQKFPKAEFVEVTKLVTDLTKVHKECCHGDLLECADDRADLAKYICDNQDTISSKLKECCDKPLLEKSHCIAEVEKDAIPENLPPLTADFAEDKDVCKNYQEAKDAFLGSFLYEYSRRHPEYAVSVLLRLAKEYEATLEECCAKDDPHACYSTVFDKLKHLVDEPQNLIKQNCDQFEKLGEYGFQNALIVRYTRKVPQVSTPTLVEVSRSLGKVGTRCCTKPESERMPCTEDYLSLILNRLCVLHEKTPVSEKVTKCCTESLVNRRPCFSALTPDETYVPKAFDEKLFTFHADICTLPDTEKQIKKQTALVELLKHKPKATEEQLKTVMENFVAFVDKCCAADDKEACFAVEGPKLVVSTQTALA", "test": "Equilibrium binding of 125-I D1 Peptide, bovine serum albumin", "from_the_text": "Acta 133, 376-379 (1979)."}}, "note": "Peptide text beside a SMILES is read from it."}
{"smiles": "CC[C@H](C)[C@H](NC(=O)[C@H](CCCCN)NC(=O)[C@H](CCSC)NC(=O)[C@@H](NC(=O)[C@@H](NC(=O)[C@H](CCCCN)NC(=O)[C@H](CCCCN)NC(=O)[C@H](CCSC)NC(=O)[C@H](CO)NC(=O)[C@H](Cc1ccc(O)cc1)NC(=O)[C@H](Cc1c[nH]c2ccccc12)NC(=O)[C@H](CCCNC(=N)N)NC(=O)[C@@H](N)[C@@H](C)O)[C@@H](C)O)[C@@H](C)O)C(=O)N[C@H](C(=O)N1CCC[C@H]1C(=O)N[C@@H](Cc1ccccc1)C(=O)N[C@@H](CC(N)=O)C(=O)N[C@@H](CCCNC(=N)N)C(=O)N[C@@H](CC(C)C)C(=O)N[C@H](C(=O)N[C@H](C(=O)NCC(=O)N[C@@H](CCC(=O)O)C(=O)NCC(=O)N[C@@H](CCC(N)=O)C(=O)N[C@@H](CCC(N)=O)C(=O)N[C@@H](Cc1c[nH]cn1)C(=O)N[C@@H](Cc1c[nH]cn1)C(=O)N[C@@H](CC(C)C)C(=O)NCC(=O)NCC(=O)N[C@@H](C)C(=O)N[C@@H](CCCCN)C(=O)N[C@@H](CCC(N)=O)C(=O)N[C@@H](C)C(=O)NCC(=O)N[C@@H](CC(=O)O)C(=O)N[C@H](C(=O)O)C(C)C)[C@@H](C)CC)[C@@H](C)O)[C@@H](C)CC", "note": "[D1 Peptide] (H-TRWYSMKKTTMKIIPFNRLTIGEGQQHHLGGAKQAGDV-OH)", "values": [{"measurement": "binding to intact NDSK", "setting": "intact NDSK", "result": "no measurable binding"}, {"measurement": "number of binding sites on thrombin-treated NDSK", "setting": "[1]; Scatchard analysis (FIG. 6)", "result": "approximately 2.1"}, {"measurement": "n (number of binding sites)", "setting": "[1]; plot of 1/free ligand vs. total NDSK/bound protein", "result": 2.2}, {"measurement": "lag time in the fibrin monomer polymerization", "setting": "thrombin fibrin monomer", "result": "more than 30 min"}, {"measurement": "binding to bovine serum albumin", "setting": "bovine serum albumin", "result": "no measurable binding"}]}
